{"source": "patent US20060013775A1", "about": "“Use of ppar activators for the treatment of pulmonary fibrosis” (priority 2001, published 2006)", "test_system": "Primary human lung fibroblasts", "test": "α-SMA positive cell (myofibroblast) count in primary lung fibroblast strains from ILD patients", "assay_type": "cell-based", "conditions": "for percentage of α-SMA cells (α-SMA positive cells as a percentage of total cells): pioglitazone 3 μM, 3 days; for percentage of α-SMA cells: 10 days, vehicle 16.5 (SEM 2.7), n=4", "excerpt": "Primary human lung fibroblasts were derived from patients with ILD (Idiopathic Pulmonary Fibrosis or Chronic Hypersensitivity Pneumonitis). Patients had clinical, functional and radiologic features which fulfil the diagnostic criteria for an ILD. Briefly, they had progressive dyspnea, bilateral reticulonodular images on chest roentgenogram, restrictive lung functional impairment, with decreased lung volumes and compliance, and hypoxemia at rest that worsened with exercise. The methods used to isolate and culture the lung fibroblasts and count cells are described in Wang et al, Am. J. Physiol. Lung 277:L1158-1164 (1999). In brief, lung fibroblasts were isolated by trypsin digestion of tissues minced to 1 mm^2 fragments. Fibroblast/myofibroblast strains were established in Dulbecco's modified Eagle's medium (or in Hams F-12 medium) supplemented with 10% fetal calf serum, 200 U/ml penicillin, and […] streptomycin, and were cultured in 24-well plates. All cells were cultured at 37° C. in 95% air-5% carbon dioxide. For these experiments, 2 strains were used. In order to quantify myofibroblast numbers, the myofibroblast marker alpha-smooth muscle actin (α-SMA) was measured. […] In a first experiment, the 2 strains were grown to 70-80% confluence. The cells were exposed to pioglitazone at 3 μM or drug vehicle for 3 days, after which the number of α-SMA positive cells was quantified (sample size 24) as a percentage of total cells. For one strain, the percentage of α-SMA cells was 27 (standard error mean 3.7) with control and 17 (standard error mean 2.5) in the presence of 3 μM pioglitazone. The drug effect was statistically significant (P≦0.01 Student-Newman-Keuls Multiple Comparisons Test). For the second strain, the respective values were 30.6 (standard error of mean 2.7) and 26 (standard error of mean 2.9) although the difference was not statistically significant. In a second experiment, the effect of pioglitazone on the second strain was studied again, but the exposure time was increased to 10 days and the effects of lower and higher concentrations (1 μM and 10 μM) were studied. After 10 days treatment with vehicle, the percentage of α-SMA cells was 16.5 (standard error of mean 2.7); after 10 days treatment with pioglitazone at 1 μM the percentage was 15.3 (standard error of mean 1.8); and after treatment with pioglitazone at 10 μM the percentage of α-SMA cells was 7.4 (standard error of mean 1.8) (all n=4). The reduction in α-SMA cells by 10 μM pioglitazone was significant (P≦0.05 Dunnett Multiple Comparisons Test).", "data": [{"smiles": "CCc1ccc(CCOc2ccc(CC3SC(=O)NC3=O)cc2)nc1", "note": "(stereo not shown) [pioglitazone]", "values": [{"measurement": "percentage of α-SMA cells (α-SMA positive cells as a percentage of total cells)", "setting": "first strain, control 27 (SEM 3.7), statistically significant P≦0.01, sample size 24", "result": "17 (standard error mean 2.5) percentage"}, {"measurement": "percentage of α-SMA cells", "setting": "second strain, pioglitazone 1 μM", "result": "15.3 (standard error of mean 1.8) percentage"}, {"measurement": "percentage of α-SMA cells (α-SMA positive cells as a percentage of total cells)", "setting": "second strain, control 30.6 (SEM 2.7), difference not statistically significant", "result": "26 (standard error of mean 2.9) percentage"}, {"measurement": "percentage of α-SMA cells", "setting": "second strain, pioglitazone 10 μM, significant P≦0.05", "result": "7.4 (standard error of mean 1.8) percentage"}]}]}
